Data set [1] can be described thus: Intrinsic dissolution rate, low-volume rotating disc method. The format is physicochemical. The conditions noted are these: salt made at 1 g scale from ethanol; disc 0.07 cm^2, 500 rpm, 50 mL USP Phosphate buffer pH 6.8 at 37° C. As for the experimental part: The salt manufactured at 1 g scale from ethanol was further investigated for its intrinsic dissolution rate and compared to the free base of 4-(5-{(1R)-1-[5-(3-chlorophenyl)isoxazol-3-yl]ethoxy}-4-methyl-4H-1,2,4-triazol-3-yl)pyridine. […] Dissolution rates of the base and salt were measured with a low-volume rotating disc method. Discs were compressed from pure compound and centrically mounted in a disc holder with an exposed area of 0.07 cm^2. The disc holder rotated at 500 rpm immersed in 50 mL USP Phosphate buffer pH 6.8 at 37° C. The compound was analysed UV-Online by a Spectrophotometer with a flow cell and a peristaltic pump with continuous circulation.

The nature of data set [2]: Moisture sorption / deliquescence of the salts at relative humidity. It counts as physicochemical.

Each structure is given as a SMILES string.

Regarding `C[C@@H](Oc1nnc(-c2ccncc2)n1C)c1cc(-c2cccc(Cl)c2)on1.Cl` [Example 17, 4-(5-{(1R)-1-[5-(3-chlorophenyl)isoxazol-3-yl]ethoxy}-4-methyl-4H-1,2,4-triazol-3-yl)pyridine hydrochloride], the “intrinsic dissolution rate of the salt as compared to the free base” value in data set [1] is recorded as 1000 times. Further, the “relative humidity at which moisture sorption is increased” value in data set [2] (first batch from ethanol) is recorded as 90-95 % RH.
For the compound `C[C@@H](Oc1nnc(-c2ccncc2)n1C)c1cc(-c2cccc(Cl)c2)on1.O=S(=O)(O)O` [Example 18, 4-(5-{(1R)-1-[5-(3-chlorophenyl)isoxazol-3-yl]ethoxy}-4-methyl-4H-1,2,4-triazol-3-yl)pyridine sulphate], the results for the “relative humidity at which the salt deliquesces” value in data set [2] (salt manufactured again from ethanol at 68° C) and in data set [2] (salt recrystallised from the oiled salt in ethanol) were 70-80 % RH and 60-70 % relative humidity, respectively.
